Measurements reported in US7589078B2, “Anti-viral nucleoside analogs and methods for treating viral infections, especially HIV infections” (Yale University, priority 2003, dated 2009).
Read-outs that look alike come from different tables or passages of the source.

Columns and labels:
[1] = target: T1, thymidine phosphorylase (TP) (Homo sapiens, UniProt P19971); experiment: Thymidine phosphorylase assay; format: in vitro ADME; conditions: partially purified TP from human liver, 100 μM nucleoside, 37° C., FIG. 11
T1 construct: using a partially purified prepartion of human liver extract (28) as a source of the thymidine phosphorylase (TP); from tissue; host or cells: human liver extract, partially purified
T1 sequence (P19971 11-482): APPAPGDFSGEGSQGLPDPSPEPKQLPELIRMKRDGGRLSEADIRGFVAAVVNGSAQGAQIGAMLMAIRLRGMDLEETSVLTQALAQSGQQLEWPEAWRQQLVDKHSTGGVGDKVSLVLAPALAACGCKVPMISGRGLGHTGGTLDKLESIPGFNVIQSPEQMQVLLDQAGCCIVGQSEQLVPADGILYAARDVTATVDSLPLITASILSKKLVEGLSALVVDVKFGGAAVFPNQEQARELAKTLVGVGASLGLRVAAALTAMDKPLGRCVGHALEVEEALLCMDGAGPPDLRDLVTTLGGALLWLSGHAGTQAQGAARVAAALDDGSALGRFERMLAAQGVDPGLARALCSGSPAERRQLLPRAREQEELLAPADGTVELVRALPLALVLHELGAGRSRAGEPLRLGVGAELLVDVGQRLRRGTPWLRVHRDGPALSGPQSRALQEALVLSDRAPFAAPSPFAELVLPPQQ
Procedure: Thymidine Phosphorylase Assays: Nucleoside analogs (100 μM) were incubated in 75 mM potassium phosphate buffer pH 7.3 at 37° C. using a partially purified prepartion of human liver extract (28) as a source of the thymidine phosphorylase (TP). After incubation, the reaction was stopped by the addition of trichloroacetic acid to a final concentration of 15%. The samples were then incubated on ice. After the acid insoluble components were removed by centrifugation, the supernatant was neutralized by two extractions with one half volume of trioctylamine/freon (45:55). The aqueous supernatants were examined by HPLC using the Beckman ODS column method, as described in Acid Stability Studies.

CEM cells = experiment: Cellular toxicity in CEM cells (cell counts); conditions: for IC50: read-out: Cellular ID50
Procedure: The basic procedures are similar. The cells are seeded a low concentration, then serial dilutions of test compound are added. […] After 48 to 96 h incubation at 37° C. in a 5% CO2 humidified incubator the assay is ended. The drug treated samples are compared to the untreated controls. This is accomplished in suspension cell lines by counting cell numbers either with a hemocytometer or by using a Coulter Counter.
The numbers in parentheses represent the mean and standard deviations of percentage of untreated CEM control cells at the concentration indicated.

thymidine kinase (TK-1) [2] = target: T2, thymidine kinase (TK-1) (Homo sapiens, UniProt P04183); experiment: Monophosphorylation of analogs by thymidine kinase; format: biochemical; parameters: phosphorylated by thymidine kinase (TK-1) from CEM cells; endogenous in cells; conditions: for Relative Vmax: 250 μM dThd or analog, 2.4 mM ATP, 0.07 unit TK-1, 37° C., 285 min, dThd = 100
T2 sequence (P04183 1-234): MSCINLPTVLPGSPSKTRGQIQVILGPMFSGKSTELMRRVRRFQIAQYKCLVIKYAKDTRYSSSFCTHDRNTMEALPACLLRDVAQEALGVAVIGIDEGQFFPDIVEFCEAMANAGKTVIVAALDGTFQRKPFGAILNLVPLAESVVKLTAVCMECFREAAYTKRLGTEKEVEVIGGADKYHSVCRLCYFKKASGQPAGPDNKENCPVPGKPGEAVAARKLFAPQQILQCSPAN
Procedure: Monophosphorylation of Analogs by Thymidine Kinase: All the analogs were tested for their ability to be phosphorylated by thymidine kinase (TK-1) from CEM cells. This enzyme was purified by an affinity column technique developed in this laboratory (7). […] At the end of the incubation time the reaction was stopped by the addition of 3 parts cold HPLC grade methanol. After incubating on ice for at least 10 min. the methanol insoluble material is precipitated by centrifugation and the methanol soluble supernatants were placed into clean microfuge tubes. These samples were brought to dryness in a Speedvac Centrifuge. The samples were dissolved in water and separated on a Shimatzu HPLC model SCL 10Avp using a gradient of water to 300 mM potassium phosphate and a Whatman 10/25 particle SAX column. Km and relative Vmax studies were done in a similar fashion, using the same mixture and different amounts of substrate and enzyme.

thymidine kinase (TK-1) [3] = target: T2, thymidine kinase (TK-1); experiment: Thymidine kinase assay with added nucleoside ([14C]-dThd to dTMP); conditions: [14C]-dThd 25 μM, added nucleoside 250 μM; compared to reactions with no additions
Procedure: After two additional washes in ethanol, the discs were dried and placed in scintillation vials that contained 5 ml SafeScint Scintillation Cocktail (American Bioanalytical, Natick, Mass.). The amount of radioactivity, which represents the amount of dTMP formed, was quantitated in a Beckman LS5000TD Scintillation Counter (Beckman Instruments Inc., Palo Alto, Calif.).

HIV-1 strain IIIB [4] = experiment: Antiviral activity in MT-2 cells infected with HIV-1 strain IIIB (MTT); format: cell-based
Procedure: Determination of antiviral activity: Compounds were tested in MT-2 cells infected with HIV-1 strain IIIB essentially as described previously (31). […]. Calculations of the percent protection and isobologram combination studies are described (12).

MT-2 cells = experiment: Cellular toxicity, MT-2 cell growth; format: cell-based; conditions: MT-2 cells; read-out: ID50: concentration required to inhibit MT-2 cell growth by 50%
From the text: (§1) The basic procedures are similar.

H-9 cells = experiment: Toxicity in H-9 cells alone and in combination (Coulter Counter); format: cell-based; conditions: H-9 cells, 48 h
From the text: as §1

HIV-1 strain IIIB [5] = conditions: MT-2 cells; EC50 reported previously (17); read-out: EC50: effective concentration required to achieve 50% protection from HIV in MT-2 cells; cited from earlier work
[6] = tested on: mtDNA content of CEM cells; experiment: Mitochondrial DNA content in CEM cells (Southern blot); format: cell-based; conditions: for IC50: four days, read-out: Mitochondrial DNA Content ID50
Procedure: Mitochondrial DNA: The effect of nucleoside analogs on mtDNA content was assessed as described previously (2). […] Cells treated with drugs at various concentrations either as single agents or in combination were grown for four days. Cells were then harvested, treated with proteinase K and DNase free RNase. Extracts were applied to nylon membranes and hybridized with an mtDNA probe. After stripping the membrane the load was normalized by rehybridizing the membrane with an Alu probe. Blots were quantitated with a Molecular Dynamics personal densitometer SI with ImageQuaNT analysis software.

[7] = CEM cells, four day cell growth, cell counts vs untreated controls
[8] = MT-2 cells, HIV-1 IIIB, read-out: EC50: effective concentration required to achieve 50% protection from HIV in MT-2 cells
[9] = Human immunodeficiency virus 1, MT2, MT-2/HIV IIIB system, FIG. 10, read-out: EC50 for single agents (isobologram study)

Cc1cn([C@H]2C[C@H](O)[C@@H](CO)O2)c(=O)[nH]c1=O [dThd]
Break down by thymidine phosphorylase [1]: broke down very quickly

Cc1cn([C@H]2C=C[C@@](C#CCl)(CO)O2)c(=O)[nH]c1=O [4′-ethynylchloro D4T]
IC50 (CEM cells; [7]): 62.6 ± 10 µM | Relative Vmax (thymidine kinase (TK-1) [2]): 3.9 ± 1.0 | Percent of Activity (thymidine kinase (TK-1) [3]): 53.2 ± 9.2% | EC50 (HIV-1 strain IIIB [4]; [8]): > 100 µM | IC50 (MT-2 cells): 63.3 ± 20.8 µM

Nc1nc(=O)n([C@@H]2C=C[C@H](CO)O2)cc1F [LFd4C, β-L-2′,3′-dideoxy-2′,3′-didehydro-5-fluorocytidine, reference compound]
Percent of Untreated Controls (H-9 cells; 5 μM LFd4C alone): 73 ± 9% | Percent of Untreated Controls (H-9 cells; 10 μM LFd4C alone): 56 ± 4% | EC50 (HIV-1 strain IIIB [4]; [9]): 0.18 µM

C=C[C@@]1(CO)C=C[C@H](n2cc(C)c(=O)[nH]c2=O)O1 [4′-vinyl D4T]
Cell count, percentage of untreated CEM control cells (CEM cells; CEM cells, at 100 μM): 78 ± 21% | IC50 (CEM cells; [7]): > 100 µM | Relative Vmax (thymidine kinase (TK-1) [2]): 1.8 ± 0.5 | Rate of conversion to the monophosphate form (thymidine kinase (TK-1) [2]; purified human TK-1): approximately 2% of dThd | Percent of Activity (thymidine kinase (TK-1) [3]): 99.5 ± 6.9% | IC50 (MT-2 cells): > 100 µM | EC50 (HIV-1 strain IIIB [5]): > 100 µM

Cc1cn([C@H]2C=C[C@@](C)(CO)O2)c(=O)[nH]c1=O [4′-methyl D4T]
Cell count, percentage of untreated CEM control cells (CEM cells; CEM cells, at 100 μM): 114 ± 2% | IC50 (CEM cells; [7]): > 100 µM | Relative Vmax (thymidine kinase (TK-1) [2]): 1.6 ± 0.5 | Rate of conversion to the monophosphate form (thymidine kinase (TK-1) [2]; purified human TK-1): approximately 2% of dThd | Percent of Activity (thymidine kinase (TK-1) [3]): 103.8 ± 9.9% | IC50 (MT-2 cells): > 100 µM | EC50 (HIV-1 strain IIIB [5]): > 100 µM

Cc1cn([C@H]2C[C@H](N=[N+]=[N-])[C@@H](CO)O2)c(=O)[nH]c1=O [AZT, 3′-Azido-3′-deoxythymidine, reference compound]
Relative Vmax (thymidine kinase (TK-1) [2]): 55.5 ± 9.7 | Rate of phosphorylation by TK-1, in words (thymidine kinase (TK-1) [2]; purified human TK-1): half as fast as dThd | Percent of Activity (thymidine kinase (TK-1) [3]): 5.4 ± 2.3%

Nc1ccn([C@@H]2CS[C@H](CO)O2)c(=O)n1 [3TC, β-L-2′,3′-dideoxy-3′-thiacytidine, reference compound]
Percent of Untreated Controls (H-9 cells; 5 μM 3TC alone): 99 ± 3% | Percent of Untreated Controls (H-9 cells; 20 μM 3TC alone): 94 ± 3% | Percent of Untreated Controls (H-9 cells; 100 μM 3TC alone): 108 ± 12% | Cell count, percentage of untreated CEM control cells (CEM cells; CEM cells, at 200 μM): 77 ± 28% | IC50 (CEM cells; Homo sapiens, CCRF-CEM, 96 h): > 200 µM | EC50 (HIV-1 strain IIIB [4]; [9]): 1 µM | IC50 ([6]; Homo sapiens, CCRF-CEM, 96 h): > 200 µM | Mitochondrial DNA content, percentage of untreated CEM control cells ([6]; at 200 μM): 114 ± 2%

Cc1cn([C@H]2C=C[C@@](C#N)(CO)O2)c(=O)[nH]c1=O [4′-cyano D4T]
Cell count, percentage of untreated CEM control cells (CEM cells; CEM cells, at 100 μM): 60 ± 1% | IC50 (CEM cells; [7]): > 100 µM | Relative Vmax (thymidine kinase (TK-1) [2]): 1.1 ± 0.2 | Percent of Activity (thymidine kinase (TK-1) [3]): 71.8 ± 8.2% | Anti-HIV activity compared with D4T (HIV-1 strain IIIB [4]; MT-2/IIIB anti HIV-1 system, FIG. 8): less active than D4T | EC50 (HIV-1 strain IIIB [4]; [8]): 7 ± 2.6 µM | Mitochondrial DNA content, percentage of untreated CEM control cells ([6]; at 100 μM): 264 ± 23% | IC50 [6]: > 100 µM | IC50 (MT-2 cells): > 100 µM

C=CC[C@@]1(CO)C=C[C@H](n2cc(C)c(=O)[nH]c2=O)O1 [4′-allyl D4T]
IC50 (CEM cells; [7]): > 100 µM | Relative Vmax (thymidine kinase (TK-1) [2]): 0.4 ± 0.2 | Percent of Activity (thymidine kinase (TK-1) [3]): 110.8 ± 9.0% | EC50 (HIV-1 strain IIIB [4]; [8]): > 100 µM | IC50 (MT-2 cells): > 100 µM

Nc1ccn([C@H]2CC[C@@H](CO)O2)c(=O)n1 [ddC, 2′,3′-dideoxycytidine, reference compound]
IC50 (CEM cells; Homo sapiens, CCRF-CEM, 96 h): 5.5 ± 1.8 µM | IC50 ([6]; Homo sapiens, CCRF-CEM, 96 h): 0.15 ± 0.12 µM
